In the NIST ThermoML archive (doi:10.1021/je400056z):

Experiment: xn = mol fraction of the nth substance listed
Conditions: Liquid, Vibrating tube method

CCCCCCC [heptane] + O=C=O
Conditions | mass density [kg/m3]
352.3 K, 20004 kPa, x2 = 0.7514 | 694.21
352.3 K, 21007 kPa, x2 = 0.7514 | 699.11
352.3 K, 22009 kPa, x2 = 0.7514 | 703.64
352.3 K, 22989 kPa, x2 = 0.7514 | 707.97
352.3 K, 24025 kPa, x2 = 0.7514 | 712.39
352.3 K, 24893 kPa, x2 = 0.7514 | 715.94
352.44 K, 4005 kPa, x2 = 0.0218 | 638.36
352.44 K, 5013 kPa, x2 = 0.0218 | 639.84
352.44 K, 6005 kPa, x2 = 0.0218 | 641.24
352.44 K, 7000 kPa, x2 = 0.0218 | 642.57
352.44 K, 8008 kPa, x2 = 0.0218 | 643.95
352.44 K, 9006 kPa, x2 = 0.0218 | 645.27
352.44 K, 10002 kPa, x2 = 0.0218 | 646.56
352.44 K, 11002 kPa, x2 = 0.0218 | 647.79
352.44 K, 12000 kPa, x2 = 0.0218 | 649.14
352.44 K, 13002 kPa, x2 = 0.0218 | 650.25
352.44 K, 13998 kPa, x2 = 0.0218 | 651.46
352.44 K, 15011 kPa, x2 = 0.0218 | 652.7
352.44 K, 16006 kPa, x2 = 0.0218 | 653.84
352.44 K, 17009 kPa, x2 = 0.0218 | 654.98
352.44 K, 17993 kPa, x2 = 0.0218 | 656.08
352.44 K, 18998 kPa, x2 = 0.0218 | 657.17
352.44 K, 20004 kPa, x2 = 0.0218 | 658.27
352.44 K, 21002 kPa, x2 = 0.0218 | 659.34
352.44 K, 22002 kPa, x2 = 0.0218 | 660.39
352.44 K, 23003 kPa, x2 = 0.0218 | 661.43
352.44 K, 23998 kPa, x2 = 0.0218 | 662.47
352.44 K, 25014 kPa, x2 = 0.0218 | 663.51
352.51 K, 9000 kPa, x2 = 0.5085 | 656.72
352.51 K, 10004 kPa, x2 = 0.5085 | 660.28
352.51 K, 11004 kPa, x2 = 0.5085 | 663.66
352.51 K, 12007 kPa, x2 = 0.5085 | 666.9
352.51 K, 13000 kPa, x2 = 0.5085 | 670.03
352.51 K, 14003 kPa, x2 = 0.5085 | 673
352.51 K, 15002 kPa, x2 = 0.5085 | 675.9
352.51 K, 15998 kPa, x2 = 0.5085 | 678.62
352.51 K, 17010 kPa, x2 = 0.5085 | 681.33
352.51 K, 18003 kPa, x2 = 0.5085 | 683.88
352.51 K, 19006 kPa, x2 = 0.5085 | 686.38
352.51 K, 20013 kPa, x2 = 0.5085 | 688.8
352.51 K, 21004 kPa, x2 = 0.5085 | 691.17
352.51 K, 22004 kPa, x2 = 0.5085 | 693.46
352.51 K, 23002 kPa, x2 = 0.5085 | 695.71
352.51 K, 24007 kPa, x2 = 0.5085 | 697.91
352.51 K, 25011 kPa, x2 = 0.5085 | 700.05
352.54 K, 15235 kPa, x2 = 0.9496 | 511.88
352.54 K, 15989 kPa, x2 = 0.9496 | 538.42
352.54 K, 17004 kPa, x2 = 0.9496 | 568.84
352.54 K, 18001 kPa, x2 = 0.9496 | 594.2
352.54 K, 18993 kPa, x2 = 0.9496 | 616.18
352.54 K, 20006 kPa, x2 = 0.9496 | 635.42
352.54 K, 20999 kPa, x2 = 0.9496 | 652.26
352.54 K, 22018 kPa, x2 = 0.9496 | 667.75
352.54 K, 22994 kPa, x2 = 0.9496 | 681.03
352.54 K, 24034 kPa, x2 = 0.9496 | 693.84
362.09 K, 12975 kPa, x2 = 0.7514 | 586.38
362.09 K, 14000 kPa, x2 = 0.7514 | 602.3
362.09 K, 14863 kPa, x2 = 0.7514 | 613.15
362.09 K, 16010 kPa, x2 = 0.7514 | 625.83
362.09 K, 17009 kPa, x2 = 0.7514 | 635.46
362.09 K, 18017 kPa, x2 = 0.7514 | 644.3
362.09 K, 19007 kPa, x2 = 0.7514 | 652.35
362.09 K, 20005 kPa, x2 = 0.7514 | 659.83
362.09 K, 21006 kPa, x2 = 0.7514 | 666.86
362.09 K, 22003 kPa, x2 = 0.7514 | 672.93
362.09 K, 22995 kPa, x2 = 0.7514 | 679.37
362.09 K, 24000 kPa, x2 = 0.7514 | 685.55
362.09 K, 24866 kPa, x2 = 0.7514 | 690.92
362.19 K, 7007 kPa, x2 = 0.3148 | 638.82
362.19 K, 8020 kPa, x2 = 0.3148 | 641.6
362.19 K, 9013 kPa, x2 = 0.3148 | 644.14
362.19 K, 10009 kPa, x2 = 0.3148 | 646.61
362.19 K, 11005 kPa, x2 = 0.3148 | 648.99
362.19 K, 12009 kPa, x2 = 0.3148 | 651.27
362.19 K, 12998 kPa, x2 = 0.3148 | 653.42
362.19 K, 13999 kPa, x2 = 0.3148 | 655.52
362.19 K, 15011 kPa, x2 = 0.3148 | 657.61
362.19 K, 16007 kPa, x2 = 0.3148 | 659.59
362.19 K, 17005 kPa, x2 = 0.3148 | 661.48
362.19 K, 18002 kPa, x2 = 0.3148 | 663.3
362.19 K, 18999 kPa, x2 = 0.3148 | 665.1
362.19 K, 20006 kPa, x2 = 0.3148 | 666.9
362.19 K, 21004 kPa, x2 = 0.3148 | 668.62
362.19 K, 22001 kPa, x2 = 0.3148 | 670.29
362.19 K, 23006 kPa, x2 = 0.3148 | 671.94
362.19 K, 24001 kPa, x2 = 0.3148 | 673.55
362.19 K, 25007 kPa, x2 = 0.3148 | 675.13
362.25 K, 17354 kPa, x2 = 0.9496 | 518.07
362.25 K, 17995 kPa, x2 = 0.9496 | 536.06
362.25 K, 19006 kPa, x2 = 0.9496 | 561.22
362.25 K, 20005 kPa, x2 = 0.9496 | 583.24
362.25 K, 21002 kPa, x2 = 0.9496 | 602.87
362.25 K, 21997 kPa, x2 = 0.9496 | 620.08
362.25 K, 22998 kPa, x2 = 0.9496 | 635.9
362.25 K, 24005 kPa, x2 = 0.9496 | 650.25
362.25 K, 24186 kPa, x2 = 0.9496 | 652.75
362.38 K, 4014 kPa, x2 = 0.0218 | 629.41
362.38 K, 5003 kPa, x2 = 0.0218 | 630.95
362.38 K, 6009 kPa, x2 = 0.0218 | 632.44
362.38 K, 7003 kPa, x2 = 0.0218 | 633.95
362.38 K, 8010 kPa, x2 = 0.0218 | 635.37
362.38 K, 9008 kPa, x2 = 0.0218 | 636.85
362.38 K, 9009 kPa, x2 = 0.5085 | 638.92
362.38 K, 10008 kPa, x2 = 0.5085 | 643.09
362.38 K, 10010 kPa, x2 = 0.0218 | 638.18
362.38 K, 10998 kPa, x2 = 0.5085 | 646.98
362.38 K, 11002 kPa, x2 = 0.0218 | 639.5
362.38 K, 12004 kPa, x2 = 0.0218 | 640.84
362.38 K, 12009 kPa, x2 = 0.5085 | 650.8
362.38 K, 13001 kPa, x2 = 0.0218 | 642.13
362.38 K, 13001 kPa, x2 = 0.5085 | 654.31
362.38 K, 14002 kPa, x2 = 0.5085 | 657.71
362.38 K, 14009 kPa, x2 = 0.0218 | 643.41
362.38 K, 15004 kPa, x2 = 0.0218 | 644.62
362.38 K, 15013 kPa, x2 = 0.5085 | 660.97
362.38 K, 16005 kPa, x2 = 0.0218 | 645.88
362.38 K, 16008 kPa, x2 = 0.5085 | 664.05
362.38 K, 16999 kPa, x2 = 0.0218 | 647.06
362.38 K, 17005 kPa, x2 = 0.5085 | 667.09
362.38 K, 18001 kPa, x2 = 0.0218 | 648.25
362.38 K, 18005 kPa, x2 = 0.5085 | 670.02
362.38 K, 18994 kPa, x2 = 0.0218 | 649.38
362.38 K, 19006 kPa, x2 = 0.5085 | 672.76
362.38 K, 19999 kPa, x2 = 0.0218 | 650.56
362.38 K, 20009 kPa, x2 = 0.5085 | 675.44
362.38 K, 21006 kPa, x2 = 0.0218 | 651.69
362.38 K, 21006 kPa, x2 = 0.5085 | 678.11
362.38 K, 22002 kPa, x2 = 0.0218 | 652.83
362.38 K, 22010 kPa, x2 = 0.5085 | 680.57
362.38 K, 23002 kPa, x2 = 0.5085 | 683.07
362.38 K, 23003 kPa, x2 = 0.0218 | 653.91
362.38 K, 23995 kPa, x2 = 0.0218 | 655.01
362.38 K, 23997 kPa, x2 = 0.5085 | 685.41
362.38 K, 25005 kPa, x2 = 0.0218 | 656.12
362.38 K, 25008 kPa, x2 = 0.5085 | 687.82
